Assay results reported in ChEMBL document CHEMBL1201861, “Genomics of Drug Sensitity in Cancer screening data, Wellcome Trust Sanger Institute”.

Legend:
Assay in all cases: cells
[1] = test system: KALS-1; format: functional, cell-based, Homo sapiens; conditions: Homo sapiens, KALS-1;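 also: growth inhibition of KALS-1 cells, determined with a cell viability assay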
Description: SANGER: Inhibition of human KALS-1 cell growth in a cell viability assay.

[2] = test system: GT3TKB; format: functional, cell-based, Homo sapiens; conditions: Homo sapiens, GT3TKB;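 also: growth inhibition of the cell line, read out with a cell viability assay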
Description: SANGER: Inhibition of human GT3TKB cell growth in a cell viability assay.

[3] = test system: OVCAR-4; format: functional, cell-based, Homo sapiens; conditions: Homo sapiens, OVCAR-4;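 also: growth inhibition of human OVCAR-4 cells, measured with a cell viability assay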
Description: SANGER: Inhibition of human OVCAR-4 cell growth in a cell viability assay.

[4] = test system: SW 954; format: functional, cell-based, Homo sapiens; conditions: Homo sapiens, SW 954;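 also: growth inhibition of SW954 human cancer cells, read out as cell viability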
Description: SANGER: Inhibition of human SW954 cell growth in a cell viability assay.

[5] = test system: KM12; format: functional, cell-based, Homo sapiens; conditions: Homo sapiens, KM12;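 also: KM12 cell growth inhibition, read out with a cell viability assay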
Description: SANGER: Inhibition of human KM12 cell growth in a cell viability assay.

[6] = test system: SF-268; format: functional, cell-based, Homo sapiens; conditions: Homo sapiens, SF-268;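 also: growth inhibition of SF-268 cells determined with a cell viability assay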
Description: SANGER: Inhibition of human SF268 cell growth in a cell viability assay.

[7] = test system: HL-60; format: functional, cell-based, Homo sapiens; conditions: Homo sapiens, HL-60;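 also: growth inhibition of human HL-60 cells, read out with a cell viability assay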
Description: SANGER: Inhibition of human HL-60 cell growth in a cell viability assay.

[8] = test system: KINGS-1; format: functional, cell-based, Homo sapiens; conditions: Homo sapiens, KINGS-1;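 also: cell viability assay measuring suppression of KINGS-1 cell growth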
Description: SANGER: Inhibition of human KINGS-1 cell growth in a cell viability assay.

[9] = test system: LB2518-MEL; format: functional, cell-based; conditions: Homo sapiens;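 also: growth inhibition of human LB2518-MEL cells, measured with a cell viability assay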
[10] = test system: LXF-289 cell line; format: functional, cell-based; conditions: Homo sapiens
Description: SANGER: Inhibition of human LXF-289 cell growth in a cell viability assay.

[11] = test system: GOTO; format: functional, cell-based, Homo sapiens; conditions: Homo sapiens, GOTO;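 also: growth inhibition of GOTO cells, read out by a cell viability assay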
Description: SANGER: Inhibition of human GOTO cell growth in a cell viability assay.

[12] = test system: ES3; format: functional, cell-based, Homo sapiens; conditions: Homo sapiens, ES3;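 also: growth inhibition of ES3 cells, read out with a cell viability assay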
Description: SANGER: Inhibition of human ES3 cell growth in a cell viability assay.

[13] = test system: D-263MG; format: functional, cell-based, Homo sapiens; conditions: Homo sapiens, D-263MG
Description: SANGER: Inhibition of human D-263MG cell growth in a cell viability assay.

[14] = test system: NCI-H226; format: functional, cell-based, Homo sapiens; conditions: Homo sapiens, NCI-H226;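 also: cell viability read-out used to gauge growth inhibition of the cells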
Description: SANGER: Inhibition of human NCI-H226 cell growth in a cell viability assay.

[15] = test system: LB2241-RCC; format: functional, cell-based, Homo sapiens; conditions: Homo sapiens, LB2241-RCC;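 also: cell viability assay measuring how strongly the cultured human renal carcinoma line is prevented from growing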
[16] = test system: MLMA; format: functional, cell-based, Homo sapiens; conditions: Homo sapiens, MLMA;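 also: growth inhibition of MLMA cells (human), determined through a cell viability readout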
Description: SANGER: Inhibition of human MLMA cell growth in a cell viability assay.

[17] = test system: KNS-81-FD; format: functional, cell-based, Homo sapiens; conditions: Homo sapiens, KNS-81-FD;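 also: growth inhibition of KNS-81-FD cells, read out with a cell viability assay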
Description: SANGER: Inhibition of human KNS-81-FD cell growth in a cell viability assay.

[18] = test system: ES7; format: functional, cell-based, Homo sapiens; conditions: Homo sapiens, ES7;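 also: growth inhibition of cultured human ES7 cells, read out as cell viability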
Description: SANGER: Inhibition of human ES7 cell growth in a cell viability assay.

[19] = test system: SK-N-DZ; format: functional, cell-based, Homo sapiens; conditions: Homo sapiens, SK-N-DZ;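 also: growth inhibition of the cancer cell line, read out through a viability assay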
Description: SANGER: Inhibition of human SK-N-DZ cell growth in a cell viability assay.

[20] = test system: DSH1; format: functional, cell-based; conditions: Homo sapiens;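 also: growth inhibition of human DSH1 cells, measured with a cell viability readout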
Description: SANGER: Inhibition of human DSH1 cell growth in a cell viability assay.

[21] = test system: SBC-1; format: functional, cell-based, Homo sapiens; conditions: Homo sapiens, SBC-1;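 also: cell viability assay measuring growth inhibition of the SBC-1 cell line, IC50 being the concentration that halves growth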
Description: SANGER: Inhibition of human SBC-1 cell growth in a cell viability assay.

[22] = test system: RPMI-8226; format: functional, cell-based, Homo sapiens; conditions: Homo sapiens, RPMI-8226
Description: SANGER: Inhibition of human RPMI-8226 cell growth in a cell viability assay.

[23] = test system: EW-16; format: functional, cell-based, Homo sapiens; conditions: Homo sapiens, EW-16;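 also: growth inhibition of human EW-16 cells, read out as cell viability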
Description: SANGER: Inhibition of human EW-16 cell growth in a cell viability assay.

[24] = test system: ES1; format: functional, cell-based, Homo sapiens; conditions: Homo sapiens, ES1;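 also: growth inhibition of ES1 cells, read out with a cell viability assay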
[25] = test system: OS-RC-2; format: functional, cell-based, Homo sapiens; conditions: Homo sapiens, OS-RC-2;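 also: growth inhibition of human OS-RC-2 cells, measured by a cell viability assay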
Description: SANGER: Inhibition of human OS-RC-2 cell growth in a cell viability assay.

[26] = test system: EW-18; format: functional, cell-based, Homo sapiens; conditions: Homo sapiens, EW-18;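 also: growth inhibition of EW-18 cells, read out by a cell viability assay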
Description: SANGER: Inhibition of human EW-18 cell growth in a cell viability assay.

[27] = test system: RH-1; format: functional, cell-based, Homo sapiens; conditions: Homo sapiens, RH-1;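 also: growth inhibition of human RH-1 cells, read out with a cell viability assay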
Description: SANGER: Inhibition of human RH-1 cell growth in a cell viability assay.

[28] = test system: NOMO-1; format: functional, cell-based, Homo sapiens; conditions: Homo sapiens, NOMO-1;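 also: growth inhibition of human NOMO-1 cells measured by a cell viability assay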
Description: SANGER: Inhibition of human NOMO-1 cell growth in a cell viability assay.

[29] = test system: COLO-684; format: functional, cell-based, Homo sapiens; conditions: Homo sapiens, COLO-684
[30] = test system: KARPAS-45; format: functional, cell-based, Homo sapiens; conditions: Homo sapiens, KARPAS-45;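 also: inhibition of cell line growth, read out through a viability assay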
Description: SANGER: Inhibition of human KARPAS-45 cell growth in a cell viability assay.

[31] = test system: NCI-H1648; format: functional, cell-based, Homo sapiens; conditions: Homo sapiens, NCI-H1648;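 also: cell viability assay measuring inhibition of NCI-H1648 cell growth, from the Sanger screening data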
Description: SANGER: Inhibition of human NCI-H1648 cell growth in a cell viability assay.

[32] = test system: TGBC1TKB; format: functional, cell-based, Homo sapiens; conditions: Homo sapiens, TGBC1TKB;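 also: growth inhibition of TGBC1TKB cells, read out by a cell viability assay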
Description: SANGER: Inhibition of human TGBC1TKB cell growth in a cell viability assay.

[33] = test system: IST-MEL1; format: functional, cell-based, Homo sapiens; conditions: Homo sapiens, IST-MEL1;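 also: growth inhibition of the cell line, read out with a cell viability assay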
Description: SANGER: Inhibition of human IST-MEL1 cell growth in a cell viability assay.

[34] = test system: LS-1034; format: functional, cell-based, Homo sapiens; conditions: Homo sapiens, LS-1034
Description: SANGER: Inhibition of human LS-1034 cell growth in a cell viability assay.

[35] = test system: NCI-H446; format: functional, cell-based, Homo sapiens; conditions: Homo sapiens, NCI-H446;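 also: growth inhibition of NCI-H446 cells determined by a cell viability assay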
Description: SANGER: Inhibition of human NCI-H446 cell growth in a cell viability assay.

[36] = test system: Mo; format: functional, cell-based, Homo sapiens; conditions: Homo sapiens, Mo
Description: SANGER: Inhibition of human Mo-T cell growth in a cell viability assay.

[37] = test system: PSN1; format: functional, cell-based, Homo sapiens; conditions: Homo sapiens, PSN1;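 also: suppression of growth of human PSN1 cells, read out by a cell viability assay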
Description: SANGER: Inhibition of human PSN1 cell growth in a cell viability assay.

[38] = test system: NB69; format: functional, cell-based, Homo sapiens; conditions: Homo sapiens, NB69;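 also: growth inhibition of NB69 cells, determined by a cell viability assay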
Description: SANGER: Inhibition of human NB69 cell growth in a cell viability assay.

[39] = test system: AM-38; format: functional, cell-based, Homo sapiens; conditions: Homo sapiens, AM-38;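 also: growth inhibition of AM-38 cells of human origin, read out by a cell viability assay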
Description: SANGER: Inhibition of human AM-38 cell growth in a cell viability assay.

[40] = test system: NCI-H1650; format: functional, cell-based, Homo sapiens; conditions: Homo sapiens, NCI-H1650;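 also: growth inhibition of human NCI-H1650 cells measured by a cell viability assay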
Description: SANGER: Inhibition of human NCI-H1650 cell growth in a cell viability assay.

[41] = test system: KM-H2; format: functional, cell-based, Homo sapiens; conditions: Homo sapiens, KM-H2;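 also: growth inhibition of KM-H2 cells, read out by a cell viability assay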
Description: SANGER: Inhibition of human KM-H2 cell growth in a cell viability assay.

[42] = test system: CGTH-W-1; format: functional, cell-based, Homo sapiens; conditions: Homo sapiens, CGTH-W-1;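 also: growth inhibition of human CGTH-W-1 cells measured by cell viability assay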
Description: SANGER: Inhibition of human CGTH-W-1 cell growth in a cell viability assay.

[43] = test system: SK-N-FI; format: functional, cell-based, Homo sapiens; conditions: Homo sapiens, SK-N-FI;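 also: cell viability assay measuring growth inhibition of human SK-N-FI cells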
Description: SANGER: Inhibition of human SK-N-FI cell growth in a cell viability assay.

[44] = test system: C2BBe1; format: functional, cell-based, Homo sapiens; conditions: Homo sapiens, C2BBe1;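 also: growth inhibition of C2BBe1 cells, read out through a viability assay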
Description: SANGER: Inhibition of human C2BBe1 cell growth in a cell viability assay.

[45] = test system: NCI-H1155; format: functional, cell-based, Homo sapiens; conditions: Homo sapiens, NCI-H1155;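 also: cell growth inhibition measured by a viability assay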
Description: SANGER: Inhibition of human NCI-H1155 cell growth in a cell viability assay.

[46] = test system: A4-Fuk; format: functional, cell-based, Homo sapiens; conditions: Homo sapiens, A4-Fuk;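 also: growth inhibition of A4-Fuk cells, read out by a cell viability assay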
Description: SANGER: Inhibition of human A4-Fuk cell growth in a cell viability assay.

[47] = test system: HOP-62; format: functional, cell-based, Homo sapiens; conditions: Homo sapiens, HOP-62;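 also: cell growth inhibition determined with a viability assay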
[48] = test system: SW982; format: functional, cell-based; conditions: Homo sapiens;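 also: growth inhibition of SW982 cells, read out with a cell viability assay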
Description: SANGER: Inhibition of human SW982 cell growth in a cell viability assay.

[49] = test system: IA-LM; format: functional, cell-based; conditions: Homo sapiens;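 also: cell viability assay measuring growth inhibition of human IA-LM cells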
Description: SANGER: Inhibition of human IA-LM cell growth in a cell viability assay.

[50] = test system: SNU-C2B; format: functional, cell-based; conditions: Homo sapiens;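 also: cell viability readout used to measure compound-driven suppression of SNU-C2B cell proliferation, IC50 marking half-maximal growth inhibition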
Description: SANGER: Inhibition of human SNU-C2B cell growth in a cell viability assay.

Structure (SMILES): CC(C)C[C@H](NC(=O)[C@H](Cc1ccccc1)NC(=O)c1cnccn1)B(O)O [BORTEZOMIB]
- IC50 ([1]; read-out: IC50): 0.925 nM
- IC50 [2]: 2.12 nM
- IC50 [3]: 0.289 nM
- IC50 [4]: 2.9 nM
- IC50 [5]: 1.27 nM
- IC50 [6]: 0.923 nM
- IC50 [7]: 4.67 nM
- IC50 [8]: 0.722 nM
- IC50 [9]: 0.425 nM
- IC50 [10]: 0.269 nM
- IC50 [11]: 17.1 nM
- IC50 [12]: > 20 nM
- IC50 [13]: 0.807 nM
- IC50 [14]: > 20 nM
- IC50 [15]: 0.804 nM
- IC50 [16]: 8.85 nM
- IC50 [17]: 2.48 nM
- IC50 [18]: 0.766 nM
- IC50 ([19]; read-out: IC50): 3.26 nM
- IC50 [20]: 0.48 nM
- IC50 [21]: 5.01 nM
- IC50 [22]: 2.35 nM
- IC50 [23]: 2.75 nM
- IC50 [24]: 0.43 nM
- IC50 [25]: 0.44 nM
- IC50 ([26]; read-out: IC50): 18 nM
- IC50 [27]: > 20 nM
- IC50 [28]: 4.33 nM
- IC50 [29]: 3.66 nM
- IC50 [30]: 3.54 nM
- IC50 [31]: 4.13 nM
- IC50 [32]: 1.71 nM
- IC50 [33]: 0.917 nM
- IC50 [34]: > 20 nM
- IC50 [35]: > 20 nM
- IC50 [36]: 2.74 nM
- IC50 [37]: 1.01 nM
- IC50 [38]: 2.46 nM
- IC50 [39]: > 20 nM
- IC50 [40]: > 20 nM
- IC50 [41]: > 20 nM
- IC50 [42]: 3.1 nM
- IC50 [43]: > 20 nM
- IC50 [44]: 2.89 nM
- IC50 [45]: > 20 nM
- IC50 [46]: 0.623 nM
- IC50 [47]: 0.647 nM

Structure (SMILES): Nc1ccccc1NC(=O)c1ccc(CNC(=O)OCc2cccnc2)cc1 [ENTINOSTAT]
- IC50 ([1]; read-out: IC50): 705 nM
- IC50 [2]: 4330 nM
- IC50 [3]: 1130 nM
- IC50 [4]: 760 nM
- IC50 [5]: 1650 nM
- IC50 [6]: 3480 nM
- IC50 [7]: 543 nM
- IC50 [8]: 4310 nM
- IC50 [9]: 933 nM
- IC50 [10]: 959 nM
- IC50 [11]: 951 nM
- IC50 [12]: > 5000 nM
- IC50 [13]: > 5000 nM
- IC50 [14]: > 5000 nM
- IC50 [15]: 1290 nM
- IC50 [16]: 1880 nM
- IC50 [17]: > 5000 nM
- IC50 [18]: 1800 nM
- IC50 ([19]; read-out: IC50): 1250 nM
- IC50 [20]: 287 nM
- IC50 [21]: 1430 nM
- IC50 [22]: 3140 nM
- IC50 [23]: 1930 nM
- IC50 [24]: 113 nM
- IC50 [25]: 968 nM
- IC50 ([26]; read-out: IC50): > 5000 nM
- IC50 [27]: > 5000 nM
- IC50 [28]: 811 nM
- IC50 [29]: > 5000 nM
- IC50 [30]: 278 nM
- IC50 [31]: > 5000 nM
- IC50 [32]: > 5000 nM
- IC50 [33]: 1180 nM
- IC50 [34]: > 5000 nM
- IC50 [35]: > 5000 nM
- IC50 [36]: > 5000 nM
- IC50 [37]: 1420 nM
- IC50 [38]: 598 nM
- IC50 [39]: > 5000 nM
- IC50 [40]: > 5000 nM
- IC50 [41]: 1570 nM
- IC50 [42]: 2420 nM
- IC50 [43]: 3450 nM
- IC50 [44]: > 5000 nM
- IC50 [45]: 3710 nM
- IC50 [46]: 1150 nM
- IC50 [47]: 484 nM

Structure (SMILES): Cc1ccc(NC(=O)c2ccc(CN3CCN(C)CC3)cc2)cc1Nc1nccc(-c2cccnc2)n1 [IMATINIB]
- IC50 [1]: > 2000 nM
- IC50 [2]: > 2000 nM
- IC50 [3]: > 2000 nM
- IC50 [4]: > 2000 nM
- IC50 [5]: > 2000 nM
- IC50 [6]: > 2000 nM
- IC50 [7]: > 2000 nM
- IC50 [8]: > 2000 nM
- IC50 [9]: > 2000 nM
- IC50 [10]: > 2000 nM
- IC50 [11]: > 2000 nM
- IC50 [12]: > 2000 nM
- IC50 [13]: > 2000 nM
- IC50 [14]: > 2000 nM
- IC50 [15]: > 2000 nM
- IC50 [16]: > 2000 nM
- IC50 [17]: > 2000 nM
- IC50 [48]: > 2000 nM
- IC50 [18]: > 2000 nM
- IC50 [19]: > 2000 nM
- IC50 [20]: > 2000 nM
- IC50 [21]: > 2000 nM
- IC50 [22]: > 2000 nM
- IC50 [23]: > 2000 nM
- IC50 [24]: > 2000 nM
- IC50 [25]: > 2000 nM
- IC50 [26]: > 2000 nM
- IC50 [27]: > 2000 nM
- IC50 [28]: > 2000 nM
- IC50 [29]: > 2000 nM
- IC50 [30]: > 2000 nM
- IC50 [31]: > 2000 nM
- IC50 [32]: > 2000 nM
- IC50 [33]: > 2000 nM
- IC50 [34]: > 2000 nM
- IC50 [35]: > 2000 nM
- IC50 [36]: > 2000 nM
- IC50 [37]: > 2000 nM
- IC50 [38]: > 2000 nM
- IC50 [39]: > 2000 nM
- IC50 [41]: > 2000 nM
- IC50 [49]: > 2000 nM
- IC50 [42]: 384 nM
- IC50 [43]: > 2000 nM
- IC50 [50]: > 2000 nM
- IC50 [44]: > 2000 nM
- IC50 [45]: > 2000 nM
- IC50 [46]: > 2000 nM
- IC50 [47]: > 2000 nM
